Test results published in ChEMBL document CHEMBL1201862, “PubChem BioAssay data set” (2004).
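Five concentrations, 48 hours, 96-well plates. Abbreviation: GI50, concentration required for 50% inhibition of growth.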 The source made the active and inactive calls. Rule as the data show it: active = GI50 up to about 1.1 µM and inactive = higher.

What was measured:
Test in all cases: NCI anticancer screen, dose series, 48 h
OVCAR-3 = system: OVCAR-3
EKVX = system: EKVX
OVCAR-8 = system: OVCAR-8
M19-MEL = system: M19-MEL
Malme-3M = system: Malme-3M
OVCAR-4 = system: OVCAR-4
HCT-15 = system: HCT-15
UACC-62 = system: UACC-62
KM12 = system: KM12
SF-268 = system: SF-268
SNB-19 = system: SNB-19
SK-MEL-5 = system: SK-MEL-5
RXF 393 = system: RXF 393
PC-3 = system: PC-3
MCF7 = system: MCF7
LOX IMVI = system: LOX IMVI
DU-145 = system: DU-145
MDA-N = system: MDA-N
MDA-MB-435 = system: MDA-MB-435
SK-MEL-2 = system: SK-MEL-2

Row | SMILES | GI50 (OVCAR-3) | GI50 (EKVX) | GI50 (OVCAR-8) | GI50 (M19-MEL) | GI50 (Malme-3M) | GI50 (OVCAR-4) | GI50 (HCT-15) [µM] | GI50 (UACC-62) | GI50 (KM12) | GI50 (SF-268) | GI50 (SNB-19) | GI50 (SK-MEL-5) | GI50 (RXF 393) | GI50 (PC-3) | GI50 (MCF7) | GI50 (LOX IMVI) | GI50 (DU-145) | GI50 (MDA-N) | GI50 (MDA-MB-435) | GI50 (SK-MEL-2)
1 | CC(C)N(C(=O)C12C3C4C5(C(=O)O)C(C1C35I)C42C(=O)O)C(C)C (stereo not drawn) | > 100 µM (inactive) | > 100 µM (inactive) | > 100 µM (inactive) | > 100 µM (inactive) | > 100 µM (inactive) | > 100 µM (inactive) | > 100 | > 100 µM (inactive) | > 100 µM (inactive) | > 100 µM (inactive) | > 100 µM (inactive) | > 100 µM (inactive) | – | – | – | – | – | – | – | –
2 | Fc1cc(F)c(F)c(S)c1F | > 100 µM (inactive) | 25.9 µM (inactive) | 41.1 µM (inactive) | – | > 100 µM (inactive) | 62.4 µM (inactive) | 59.6 | > 100 µM (inactive) | > 100 µM (inactive) | 77.3 µM (inactive) | > 100 µM (inactive) | > 100 µM (inactive) | 23.7 µM (inactive) | 19.8 µM (inactive) | > 100 µM (inactive) | > 100 µM (inactive) | > 100 µM (inactive) | > 100 µM (inactive) | > 100 µM (inactive) | > 100 µM (inactive)
3 | COc1ccc(N2C(N)=C(C#N)C(C#N)(C#N)C2c2cccc([N+](=O)[O-])c2)cc1 (stereo not drawn) | 15.4 µM (inactive) | 20.7 µM (inactive) | 17.9 µM (inactive) | – | 6.73 µM (inactive) | 17.7 µM (inactive) | 15.5 | 15.9 µM (inactive) | 18.9 µM (inactive) | 20.6 µM (inactive) | 17.9 µM (inactive) | 13.4 µM (inactive) | 9.23 µM (inactive) | 17.1 µM (inactive) | 19.9 µM (inactive) | 13.5 µM (inactive) | 17.8 µM (inactive) | 17.3 µM (inactive) | 16.9 µM (inactive) | 18.1 µM (inactive)
4 | c1cc(-c2ccc(-c3ccc(C4=NCCCN4)cc3)o2)ccc1C1=NCCCN1 | > 100 µM (inactive) | 40.2 µM (inactive) | 59.3 µM (inactive) | – | 49.4 µM (inactive) | > 100 µM (inactive) | 90.8 | 19 µM (inactive) | 43.7 µM (inactive) | > 100 µM (inactive) | 52.6 µM (inactive) | 22.8 µM (inactive) | > 100 µM (inactive) | 79.1 µM (inactive) | 88.7 µM (inactive) | 37.4 µM (inactive) | 89.3 µM (inactive) | 32.6 µM (inactive) | 33.5 µM (inactive) | > 100 µM (inactive)
5 | CCC(NC(C)c1ccccc1)C(O)c1ccc(OCc2ccccc2)c(OCc2ccccc2)c1 (stereo not drawn) | 12 µM (inactive) | 16.5 µM (inactive) | 14.1 µM (inactive) | – | 14.6 µM (inactive) | 16.4 µM (inactive) | 14.5 | 17.5 µM (inactive) | 5.81 µM (inactive) | 19.4 µM (inactive) | 14.5 µM (inactive) | 4.45 µM (inactive) | 8.65 µM (inactive) | 13.9 µM (inactive) | 14.3 µM (inactive) | 12.1 µM (inactive) | 18.2 µM (inactive) | 15.3 µM (inactive) | 13.8 µM (inactive) | 14.9 µM (inactive)
6 | COC(=O)/C=C/c1ccc(OP(=O)(O)O)c(OC)c1 | > 100 µM (inactive) | > 100 µM (inactive) | > 100 µM (inactive) | – | > 100 µM (inactive) | > 100 µM (inactive) | > 100 | > 100 µM (inactive) | > 100 µM (inactive) | > 100 µM (inactive) | > 100 µM (inactive) | > 100 µM (inactive) | > 100 µM (inactive) | > 100 µM (inactive) | > 100 µM (inactive) | > 100 µM (inactive) | > 100 µM (inactive) | > 100 µM (inactive) | > 100 µM (inactive) | > 100 µM (inactive)
7 | COc1cc2c(cc1OCCCN1CCOCC1)N=C[C@@H]1CCCN1C2=O | 2.83 µM (inactive) | 19.4 µM (inactive) | 24.7 µM (inactive) | – | 8.3 µM (inactive) | 13.3 µM (inactive) | 24.9 | 12.8 µM (inactive) | 13.4 µM (inactive) | 7.53 µM (inactive) | 18.8 µM (inactive) | 4.07 µM (inactive) | 2.75 µM (inactive) | 18.6 µM (inactive) | 7.24 µM (inactive) | 4.48 µM (inactive) | 21.7 µM (inactive) | 6.89 µM (inactive) | 11.8 µM (inactive) | 11.2 µM (inactive)
8 | CC(C)(Cc1ccccc1)N1C(=O)N1C(C)(C)Cc1ccccc1 | > 100 µM (inactive) | 92.7 µM (inactive) | > 100 µM (inactive) | – | 23.4 µM (inactive) | 34.7 µM (inactive) | 21.4 | 23.8 µM (inactive) | > 100 µM (inactive) | 53.2 µM (inactive) | > 100 µM (inactive) | 14.1 µM (inactive) | 14.8 µM (inactive) | 47.5 µM (inactive) | 31.5 µM (inactive) | 17.7 µM (inactive) | > 100 µM (inactive) | 38.8 µM (inactive) | 39.1 µM (inactive) | 19.7 µM (inactive)
9 | CC(=O)NC1C(OCc2ccccc2)OC(CO)C(O)C1OC(C)C(=O)N[C@@H](C)C(=O)N[C@H](CCC(=O)NCCNCCNc1c2ccccc2nc2cccc([N+](=O)[O-])c12)C(N)=O (stereo partly drawn) | 0.226 µM (active) | 0.199 µM (active) | 0.11 µM (active) | – | 0.043 µM (active) | 0.0228 µM (active) | 0.153 | 0.0659 µM (active) | 0.0783 µM (active) | 0.164 µM (active) | 0.29 µM (active) | 0.0159 µM (active) | 0.0169 µM (active) | 0.0321 µM (active) | < 0.0195 µM (active) | 0.136 µM (active) | 0.0241 µM (active) | 0.0708 µM (active) | 0.0389 µM (active) | 0.048 µM (active)
10 | O=c1[nH]/c(=C/c2cccs2)c(=O)[nH]/c1=C/c1ccc(OCc2ccccc2)cn1 | < 0.0146 µM (active) | 1 µM (active) | 0.197 µM (active) | – | 0.0197 µM (active) | 0.0836 µM (active) | < 0.015 | 0.0638 µM (active) | 0.59 µM (active) | 0.0521 µM (active) | 0.0661 µM (active) | 0.0515 µM (active) | 0.0506 µM (active) | 0.0431 µM (active) | 0.0422 µM (active) | 57.1 µM (inactive) | 0.0716 µM (active) | 0.0164 µM (active) | < 0.01 µM (active) | 0.0561 µM (active)
11 | Cc1[nH]c2ccccc2c1/C=N/NC(=O)c1cccc(I)c1 | 20.7 µM (inactive) | 12.2 µM (inactive) | 26.5 µM (inactive) | – | 24.2 µM (inactive) | 16.1 µM (inactive) | 23.7 | 17.8 µM (inactive) | 16.3 µM (inactive) | 40.6 µM (inactive) | 29 µM (inactive) | 15.7 µM (inactive) | 17.5 µM (inactive) | 23 µM (inactive) | 19.5 µM (inactive) | 15.7 µM (inactive) | 27.9 µM (inactive) | 22.1 µM (inactive) | 17.3 µM (inactive) | 19.2 µM (inactive)
12 | Cc1cc(C)c2c(O)cc(-c3ccc(Cl)cc3)nc2n1 | 26.9 µM (inactive) | > 56.2 µM (inactive) | > 100 µM (inactive) | – | 30.8 µM (inactive) | 21.6 µM (inactive) | 21.9 | 60.4 µM (inactive) | 16.3 µM (inactive) | > 100 µM (inactive) | 94 µM (inactive) | 17.1 µM (inactive) | 43.7 µM (inactive) | 14.9 µM (inactive) | 27.2 µM (inactive) | 35.5 µM (inactive) | 54.1 µM (inactive) | 7.11 µM (inactive) | 6.79 µM (inactive) | 47 µM (inactive)
13 | O=[N+]([O-])/C(Cl)=C(\Sc1ccccc1)C(Cl)=C(Cl)Cl | 1.52 µM (inactive) | 2.04 µM (inactive) | 0.191 µM (active) | – | 0.647 µM (active) | 1.49 µM (inactive) | 0.42 | 0.647 µM (active) | 1.79 µM (inactive) | 1.4 µM (inactive) | 2.22 µM (inactive) | 0.54 µM (active) | 0.975 µM (active) | 2.01 µM (inactive) | 0.159 µM (active) | 0.207 µM (active) | 1.71 µM (inactive) | 0.288 µM (active) | 0.22 µM (active) | 1.77 µM (inactive)
14 | NCCC1([N+](=O)[O-])CCNCC1 | > 100 µM (inactive) | > 100 µM (inactive) | > 100 µM (inactive) | – | > 100 µM (inactive) | > 100 µM (inactive) | > 100 | > 100 µM (inactive) | > 100 µM (inactive) | > 100 µM (inactive) | > 100 µM (inactive) | > 100 µM (inactive) | > 100 µM (inactive) | > 100 µM (inactive) | > 100 µM (inactive) | > 100 µM (inactive) | > 100 µM (inactive) | > 100 µM (inactive) | > 100 µM (inactive) | > 100 µM (inactive)
15 | COC(=O)C1=C(OC(=O)/C(=C/c2ccccc2)c2ccc(OC)cc2)C(C(=O)OC)[C@@]2(O)[C@@H](C(=O)OC)[C@H](C)C[C@@H]1[C@@H]2C(=O)OC (stereo partly drawn) | > 100 µM (inactive) | > 100 µM (inactive) | 35.6 µM (inactive) | – | > 100 µM (inactive) | > 100 µM (inactive) | > 100 | > 100 µM (inactive) | > 100 µM (inactive) | > 100 µM (inactive) | 32.4 µM (inactive) | > 100 µM (inactive) | 17.8 µM (inactive) | > 100 µM (inactive) | > 100 µM (inactive) | > 100 µM (inactive) | > 100 µM (inactive) | > 100 µM (inactive) | > 100 µM (inactive) | > 100 µM (inactive)
